Data reported in patent US20250367189A1, “2-BROMO-LYSERGIC ACID DI[…] SUBSTANCE ABUSE” (Ceruvia Lifesciences LLC, priority 2020, published 2025).

Key:
[1] = test system: human participants; conditions: 0.03 mg/kg delivered daily; cited from earlier work
[2] = test system: male fosTRAP2×Ai14 mice; assay: Two-bottle choice (water vs 20% ethanol) drinking after ethanol exposure; type: in vivo; conditions: for ethanol preference, within-group mean difference week 1 vs. week 3: follow-up week 1 (after dose 1) vs week 3 (after dose 2); for ethanol consumption, mean difference Saline vs. treatment: planned contrast across 4 follow-up weeks, LSD 50 ug/kg or BOL-148 3.0 mg/kg intraperitoneal; for effect of treatment on alcohol preference (summary) / additive effect of a second dose on alcohol preference: summary in words; for additive effect of a second dose on alcohol preference: two doses, weeks 1 and 3
Source text: Twenty-five adult (12-30-week old), male fosTRAP2×Ai14 mice were bred in-house. Generation of the fosTRAP2 and FosTRAP lines were previously described (Guenthner, et al.). fosTRAP2 mice were crossed with Ai14 mice to obtain the mice used in this study. Mice were single-housed on a reverse light-dark cycle and given unlimited access to standard mouse chow and water. Animals were given a week to habituate to single housing, after which they were given free access to 2 bottles containing water and 20% ethanol for 24-hour periods beginning at the start of their dark cycle, 5 days per week (Monday-Friday) for 4 weeks (ethanol exposure). Amount of water and ethanol consumed (by volume and weight) were measured for each mouse across the final 5 days of the ethanol exposure period, and ethanol preference was counterbalanced across treatment group by the mean ethanol preference by weight (corrected for body weight) during this period.
Following 4 weeks of ethanol exposure, animals were administered one of 3 treatments via a single intraperitoneal injection 10 minutes prior to onset of the dark cycle/day one in a five-day cycle of alcohol exposure: saline, LSD 50 ug/kg, or BOL-148 3.0 mg/kg. Following administration of treatment, animals were placed back into their home cages with free access to standard mouse chow and water. After 10 minutes, 12 animals from each treatment group were given free access to 2 bottles containing water and 20% ethanol for 24 hours daily for 4 weeks (alcohol preference). Amount of water and ethanol consumed (by volume and weight) were measured daily at the end of the light cycle. Positions of bottles containing water and 20% ethanol were alternated daily to prevent the formation of place preference. An additional 2-4 animals per treatment group were given free access to standard mouse chow and water, and ambulatory activity as well as head-twitching behavior (thought to correspond with hallucinogenicity of substances in mice), was measured for 35 minutes following treatment.
For all hypotheses, data were analyzed using Mixed Models for Repeated Measures (MMRM), including fixed effects of Treatment (Saline, BOL, LSD), Week (1-4), Day (1-5), and two- and three-way interactions between Treatment and Day/Week. Repeated Effects were represented as a nested within-subjects variable (days within weeks). Data were analyzed separately for each of 3 dependent variables: ethanol consumption (mg and ml consumed), ethanol preference (ethanol consumption/total fluid consumption), and total fluid consumption (mg and ml consumed). For hypothesis 1a, a priori between-group comparisons are performed to contrast ethanol consumption, ethanol preference, and total fluid consumption between the vehicle- and LSD-treated groups. For hypothesis 1b, a priori between-group comparisons are performed to contrast ethanol consumption, ethanol preference, and total fluid consumption between the LSD-treated group at follow-up weeks 1 versus 3. For hypothesis 2a, a priori between-group comparisons are performed to contrast ethanol consumption, ethanol preference, and total fluid consumption between the vehicle- and BOL-148-treated groups. For hypothesis 2b, a priori between-group comparisons are performed to contrast ethanol consumption, ethanol preference, and total fluid consumption between the LSD- and BOL-148-treated groups. For each hypothesis, with 3 groups of 5-10 animals (total n=25) and 20 days of repeated measurements (autocorrelation=0.5), there is power of 0.8 to detect moderately-sized effects of approximately d=0.3 at alpha=0.05.

[3] = test system: rats; conditions: cited from earlier work
[4] = in vivo; cited from earlier work
[5] = test system: 5-HT receptors; conditions: cited from earlier work
[6] = test system: humans; conditions: cited from earlier work
[7] = target: 5HT2A receptors (Homo sapiens, UniProt P28223); conditions: cited from earlier work
Chain of 5HT2A receptors (P28223 whole entry): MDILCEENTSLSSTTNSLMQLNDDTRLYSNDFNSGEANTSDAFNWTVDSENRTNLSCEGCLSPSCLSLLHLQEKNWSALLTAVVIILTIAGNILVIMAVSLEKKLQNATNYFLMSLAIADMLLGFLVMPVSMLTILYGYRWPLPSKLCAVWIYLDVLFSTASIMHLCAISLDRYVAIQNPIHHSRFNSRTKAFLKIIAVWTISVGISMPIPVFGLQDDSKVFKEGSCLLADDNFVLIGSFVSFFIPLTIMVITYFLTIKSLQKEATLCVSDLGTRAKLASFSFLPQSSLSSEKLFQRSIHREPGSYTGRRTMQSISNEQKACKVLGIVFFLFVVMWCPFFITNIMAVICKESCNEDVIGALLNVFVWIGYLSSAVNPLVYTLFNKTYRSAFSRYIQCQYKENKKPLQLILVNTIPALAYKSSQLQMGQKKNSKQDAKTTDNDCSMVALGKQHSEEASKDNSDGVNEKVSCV

[8] = test system: rats; conditions: cited from earlier work; remark: listed apart in the source
[9] = test system: participants with alcoholism; conditions: DPT treatment vs conventional treatment; cited from earlier work
[10] = test system: participants with alcoholism; conditions: 1 to 6 DPT sessions; cited from earlier work
[11] = target: T1, 5HT1A receptors (Homo sapiens, UniProt P08908); conditions: cited from earlier work
T1 sequence (P08908 1-422): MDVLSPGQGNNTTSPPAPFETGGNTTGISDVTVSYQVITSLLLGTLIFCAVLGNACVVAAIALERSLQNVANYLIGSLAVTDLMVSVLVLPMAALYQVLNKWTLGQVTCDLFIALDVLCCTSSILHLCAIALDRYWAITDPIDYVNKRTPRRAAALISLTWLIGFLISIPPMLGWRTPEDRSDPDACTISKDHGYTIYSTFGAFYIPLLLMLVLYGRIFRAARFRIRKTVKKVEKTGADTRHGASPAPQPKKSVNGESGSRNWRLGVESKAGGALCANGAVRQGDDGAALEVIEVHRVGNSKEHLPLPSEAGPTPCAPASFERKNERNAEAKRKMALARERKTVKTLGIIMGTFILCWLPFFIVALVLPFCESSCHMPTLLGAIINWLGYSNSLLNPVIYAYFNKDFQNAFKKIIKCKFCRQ

[12] = test system: C57BL/6J mice; conditions: cited from earlier work
[13] = test system: dopamine receptors; conditions: cited from earlier work
[14] = test system: rodents; conditions: cited from earlier work
[15] = test system: participants with alcohol dependence; conditions: single high-dose LSD session vs control, six trials; cited from earlier work
[16] = LSD 50 ug/kg or BOL-148 3.0 mg/kg IP

For `CCN(CC)C(=O)[C@@H]1C=C2c3cccc4[nH]c(Br)c(c34)C[C@H]2N(C)C1` [BOL-148, 2-bromo-lysergic acid diethylamide], the “effect on cluster headaches” value [1] is listed as “effective at reducing cluster headaches”, the “ethanol preference, within-group mean difference week 1 vs. week 3” value [2, 16] is listed as 0.119 and the “ethanol consumption, mean difference Saline vs. treatment” value [2] is listed as 0.004 mg total ethanol consumed/mg of body weight. The “effect of treatment on alcohol preference (summary)” value [2] was “modest effect”, the “additive effect of a second dose on alcohol preference” value [2] was “an additive effect of BOL-148 was found” and the “blockade of the effects of LSD by pre-treatment” value [3] was “will not block the effects of LSD”. The psychedelic activity [4] was “inactive as a psychedelic”, the “effect on 5-HT receptors” value [5] was “neutral antagonist” and the “blockade of the effects of LSD in humans” value [6] was “could block the effects of LSD”. The “activity at 5HT2A receptors” value [7] was 5HT2A antagonist activity.

For `COc1cc(CC(C)N)c(OC)cc1I` (stereo not shown) [DOI, 2,5-dimethoxy-4-iodoamphetamine], the “effect on alcohol preference” value [8] is given as “reduce alcohol preference”.

For `CCCN(CCC)CCc1c[nH]c2ccccc12` [DPT, Dipropyltryptamine], the “clinical outcomes at 6 month follow-up vs other groups” value [9] is given as “no significant differences” and the “clinical outcomes including abstinence at 6 months” value [10] is given as “highly significant improvement”.

For `CCN(CC)C(=O)[C@@H]1C=C2c3cccc4[nH]cc(c34)C[C@H]2N(C)C1` [LSD, lysergic acid diethylamide], the “ethanol preference, mean difference LSD vs. BOL-148” value ([2]; LSD 50 ug/kg versus BOL-148 3.0 mg/kg treated groups) was 0.081, the “ethanol preference, within-group mean difference week 1 vs. week 3” value [2, 16] was 0.014 and the “ethanol consumption, mean difference Saline vs. treatment” value [2] was 0.050 mg total ethanol consumed/mg of body weight. The “ethanol preference (ethanol consumption/total fluid consumption), mean difference Saline vs. treatment” value ([2]; planned contrast across follow-up, LSD 50 ug/kg or BOL-148 3.0 mg/kg IP) was 0.168, the “ethanol consumption, mean difference Saline vs. LSD, Week 1” value ([2]; post-hoc, Week 1 (injection week), LSD 50 ug/kg IP) was 0.062 mg total ethanol consumed/mg of body weight and the “ethanol consumption, mean difference Saline vs. LSD, Week 2” value ([2]; post-hoc, Week 2 (non-injection week), LSD 50 ug/kg IP) was 0.077 mg total ethanol consumed/mg of body weight. For the same compound, the “ethanol consumption, mean difference Saline vs. LSD, Week 3” value ([2]; post-hoc, Week 3 (injection week), LSD 50 ug/kg IP) was −0.029 mg total ethanol consumed/mg of body weight, the “ethanol consumption, mean difference Saline vs. LSD, Week 4” value ([2]; post-hoc, Week 4 (non-injection week), LSD 50 ug/kg IP) was 0.089 mg total ethanol consumed/mg of body weight and the “effect of treatment on alcohol preference (summary)” value [2] was “becomes apparent immediately, and remains stable for weeks”. The “additive effect of a second dose on alcohol preference” value [2] was “An additive effect was not found”, the “activity at 5HT1A receptors” value [11] was “potent agonist” and the “effect on alcohol consumption and alcohol preference” value ([12]; acute administration of 50 ug/kg LSD, C57BL/6J mice) was “robust and lasting reduction”. The “duration of observation over which reduced ethanol consumption was shown” value ([12]; mice, 25 μg/kg LSD) was 46 days, the “group mean reduction of ethanol consumption relative to controls” value ([12]; mice, 25 μg/kg LSD) was 17.9% and the “activity at dopamine receptors” value [13] was “partial agonist”. For the same compound, the “range of doses that reliably produce accurate responding in a discrimination task or head twitch response” value [14] was 0.17 to 0.2 mg/kg, the “odds of improvement at first post-treatment follow-up (OR)” value [15] was 1.96 and the “activity at 5HT2A receptors” value [7] was “partial agonist”.
